Literature values in patent US20090214599A1, “PROTON PUMP INHIBITOR FORMULATIONS, AND METHODS OF PREPARING AND USING SUCH FORMULATIONS” (AGI THERAPEUTICS PLC, priority 2008, published 2009).

How the values were obtained:
[1] = pH <4
[2] = healthy subjects

Structure (SMILES): COc1ccc2[nH]c([S+]([O-])Cc3ncc(C)c(OC)c3C)nc2c1 (stereo not drawn) [omeprazole]
- half-life of degradation in acid conditions [1]: ~10 min
- total body clearance [2]: 500 to 600 mL/min
- Protein binding: approximately 95%
